± gives the standard deviation of the averaged measurements.
How the values were obtained:
DECITABINE = compound: Nc1ncn([C@H]2C[C@H](O)[C@@H](CO)O2)c(=O)n1 [DECITABINE]; test: surviving fraction relative to DMSO-only wells; higher = less growth inhibition; details: exposure time: 5 days
How it was run: (§1)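 Tumour cell lines in log phase were plated in 384-well plates at 250–500 cells per well, then, after 24 hours, exposed continuously for five days to inhibitors at 0.5, 1, 5, 10, 50, 100, 500 and 1000 nM. Viability came from CellTiter-Glo luminescence, and surviving fraction is that signal normalised to the median of DMSO-only wells. Plates were read after 10 minutes at room temperature, and each line, screened three times, was kept only when replicate Pearson r was >0.7 and median Z' was >0.3.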

[1] = compound: CCN(CC)CCCCNc1ncc2cc(-c3cc(OC)cc(OC)c3)c(NC(=O)NC(C)(C)C)nc2n1; test: as above; details: exposure time: 5 days
How it was run: as §1

Test System	surviving fraction (DECITABINE; 0.5 nM)	surviving fraction (DECITABINE; 1 nM)	surviving fraction (DECITABINE; 5 nM)	surviving fraction (DECITABINE; 10 nM)	surviving fraction (DECITABINE; 50 nM)	surviving fraction (DECITABINE; 100 nM)	surviving fraction (DECITABINE; 500 nM)	surviving fraction (DECITABINE; 1000 nM)	surviving fraction ([1]; 0.5 nM)	surviving fraction ([1]; 1 nM)	surviving fraction ([1]; 5 nM)	surviving fraction ([1]; 10 nM)	surviving fraction ([1]; 50 nM)	surviving fraction ([1]; 100 nM)	surviving fraction ([1]; 500 nM)	surviving fraction ([1]; 1000 nM)
MDAMB361 BREAST	0.895 ± 0.057	0.909 ± 0.034	0.938 ± 0.08	0.875 ± 0.038	0.906 ± 0.19	0.915 ± 0.17	0.99 ± 0.2	0.921 ± 0.084	0.945 ± 0.025	0.917 ± 0.056	0.855 ± 0.092	0.839 ± 0.051	0.955 ± 0.097	0.846 ± 0.034	0.937 ± 0.065	0.859 ± 0.025
SG32 HEADNECK	1.25 ± 0.11	1.26 ± 0.16	1.12 ± 0.12	1.16 ± 0.067	1.25 ± 0.36	1.1 ± 0.14	0.908 ± 0.071	0.715 ± 0.064	1.03 ± 0.14	1.05 ± 0.086	1.15 ± 0.13	1.01 ± 0.16	0.859 ± 0.027	0.793 ± 0.0076	1.36 ± 0.92	0.884 ± 0.15
CAL120 BREAST	0.952 ± 0.053	0.929 ± 0.059	0.948 ± 0.072	0.952 ± 0.044	0.995 ± 0.038	0.967 ± 0.018	0.806 ± 0.017	0.717 ± 0.037	0.933 ± 0.032	0.918 ± 0.031	0.9335 ± 0.0035	0.928 ± 0.023	0.852 ± 0.029	0.746 ± 0.053	0.565 ± 0.021	0.537 ± 0.06
MDAMB453 BREAST	1.04 ± 0.053	1.04 ± 0.032	1.05 ± 0.093	1.07 ± 0.062	1.05 ± 0.061	1.02 ± 0.059	0.88 ± 0.015	0.757 ± 0.053	0.981 ± 0.029	1.03 ± 0.032	1.05 ± 0.058	1.05 ± 0.043	1.03 ± 0.082	1.04 ± 0.09	1.07 ± 0.033	0.814 ± 0.053
DU4475 BREAST	0.998 ± 0.059	0.872 ± 0.002	0.774 ± 0.11	0.782 ± 0.074	0.537 ± 0.066	0.415 ± 0.054	0.194 ± 0.015	0.167 ± 0.0061	0.845 ± 0.2	0.76 ± 0.22	0.743 ± 0.13	0.795 ± 0.19	0.814 ± 0.16	0.762 ± 0.11	0.702 ± 0.2	0.703 ± 0.18
NCIH441 LUNG	1.11 ± 0.025	1.11 ± 0.058	1.03 ± 0.074	0.935 ± 0.039	0.71 ± 0.057	0.591 ± 0.12	0.494 ± 0.047	0.405 ± 0.056	1 ± 0.052	1.04 ± 0.052	1 ± 0.022	1.01 ± 0.09	1.04 ± 0.052	1.01 ± 0.059	1.02 ± 0.053	1.06 ± 0.051
CASKI CERVIX	0.891 ± 0.044	0.919 ± 0.096	0.858 ± 0.056	0.898 ± 0.095	0.484 ± 0.033	0.368 ± 0.042	0.214 ± 0.017	0.209 ± 0.022	0.927 ± 0.03	0.907 ± 0.022	0.953 ± 0.056	0.982 ± 0.042	0.996 ± 0.013	0.941 ± 0.05	0.751 ± 0.035	0.602 ± 0.014
SJSA1 BONE	0.512 ± 0.028	1.53 ± 0.038	1.63 ± 0.11	0.545 ± 0.031	1.55 ± 0.081	1.68 ± 0.022	1.73 ± 0.05	1.77 ± 0.053	1.04 ± 0.052	1.04 ± 0.026	1.04 ± 0.026	1.09 ± 0.034	1.08 ± 0.021	1.07 ± 0.038	1.023 ± 0.0089	1.04 ± 0.034
BT549 BREAST	1.16 ± 0.084	1.16 ± 0.23	0.976 ± 0.095	1.06 ± 0.042	0.721 ± 0.051	0.724 ± 0.045	0.537 ± 0.064	0.452 ± 0.058	1.16 ± 0.13	1.16 ± 0.11	1.15 ± 0.11	1.19 ± 0.077	1.18 ± 0.17	1.04 ± 0.096	0.932 ± 0.059	0.843 ± 0.068
SCC36 HEADNECK	1.01 ± 0.05	1.01 ± 0.054	1.05 ± 0.15	1.05 ± 0.09	1.04 ± 0.089	0.934 ± 0.067	0.709 ± 0.054	0.648 ± 0.074	1.1 ± 0.082	1.03 ± 0.12	1.1 ± 0.15	1.19 ± 0.028	0.978 ± 0.086	1.04 ± 0.043	0.83 ± 0.039	0.692 ± 0.082
HCC1806 BREAST	0.937 ± 0.083	0.698 ± 0.11	0.531 ± 0.02	0.483 ± 0.031	0.256 ± 0.039	0.159 ± 0.0035	0.083 ± 0.012	0.0507 ± 0.008	1.11 ± 0.012	0.967 ± 0.1	1.11 ± 0.065	1.14 ± 0.033	1.11 ± 0.089	1.07 ± 0.043	1.06 ± 0.13	1.1 ± 0.095
SG43 HEADNECK	1.02 ± 0.031	1.14 ± 0.16	0.953 ± 0.11	1.03 ± 0.48	0.835 ± 0.18	0.868 ± 0.2	0.812 ± 0.062	0.8 ± 0.049	0.9 ± 0.076	0.971 ± 0.053	0.974 ± 0.15	0.966 ± 0.095	0.85 ± 0.13	0.905 ± 0.24	0.95 ± 0.12	0.811 ± 0.16
MG63 BONE	0.968 ± 0.02	0.9493 ± 0.0021	0.704 ± 0.009	0.641 ± 0.0093	0.432 ± 0.017	0.356 ± 0.008	0.302 ± 0.016	0.291 ± 0.011	0.9463 ± 0.0067	0.983 ± 0.012	0.998 ± 0.013	0.965 ± 0.016	0.8687 ± 0.0035	0.771 ± 0.013	0.6363 ± 0.0049	0.641 ± 0.016
ZR751 BREAST	1.21 ± 0.096	1.2 ± 0.073	1.22 ± 0.11	1.05 ± 0.16	0.988 ± 0.12	1.13 ± 0.12	0.865 ± 0.012	0.866 ± 0.059	0.946 ± 0.032	1.03 ± 0.063	0.954 ± 0.017	1.01 ± 0.19	0.912 ± 0.04	1.1 ± 0.11	1.01 ± 0.067	1.05 ± 0.12
CAL51 BREAST	1.03 ± 0.028	0.98 ± 0.034	1 ± 0.041	0.952 ± 0.046	0.95 ± 0.12	0.865 ± 0.15	0.586 ± 0.077	0.481 ± 0.021	0.92 ± 0.063	0.943 ± 0.013	0.964 ± 0.061	0.961 ± 0.042	0.858 ± 0.035	0.83 ± 0.03	0.673 ± 0.019	0.6517 ± 0.0035
MDAMB468 BREAST	1.09 ± 0.083	1.08 ± 0.062	1.08 ± 0.098	1.03 ± 0.068	0.836 ± 0.04	0.658 ± 0.046	0.391 ± 0.02	0.341 ± 0.043	0.929 ± 0.043	0.959 ± 0.06	0.996 ± 0.005	0.985 ± 0.003	0.975 ± 0.055	1.1 ± 0.033	0.983 ± 0.033	0.956 ± 0.021
MCF7 BREAST	0.932 ± 0.022	0.906 ± 0.065	0.887 ± 0.02	0.803 ± 0.02	0.843 ± 0.04	0.861 ± 0.026	0.842 ± 0.034	0.83 ± 0.043	0.884 ± 0.024	0.868 ± 0.063	0.864 ± 0.03	0.877 ± 0.068	0.878 ± 0.04	0.861 ± 0.038	0.878 ± 0.042	0.908 ± 0.069
HU09 BONE	0.982 ± 0.083	0.968 ± 0.081	1.12 ± 0.13	0.997 ± 0.072	1.17 ± 0.13	1.04 ± 0.027	0.95 ± 0.084	0.847 ± 0.034	1 ± 0.045	1.01 ± 0.047	0.928 ± 0.028	1.02 ± 0.12	0.942 ± 0.061	0.921 ± 0.072	0.72 ± 0.011	0.715 ± 0.065
SYO1 SYNOVIAL	0.991 ± 0.024	0.998 ± 0.021	0.933 ± 0.021	0.917 ± 0.022	0.663 ± 0.015	0.629 ± 0.013	0.439 ± 0.02	0.383 ± 0.0062	0.786 ± 0.081	0.961 ± 0.052	0.859 ± 0.044	0.868 ± 0.043	0.699 ± 0.016	0.727 ± 0.056	0.669 ± 0.055	0.653 ± 0.009

Reference: the supplement of paper PMC6045584
